The source made the active and inactive calls. No cut-off for these calls is given here.
Legend:
HepG2 [1] = assay: Anticancer activity against human HepG2 cells xenografted in mouse assessed as tumor growth inhibition by measuring T/C ratio at 5 mg/kg measured at day 14 relative to control; type: functional
DNA [2] = assay: Induction of DNA damage in human T24 cells assessed as inhibition of DNA replication at 10 uM measured after 24 hrs by EdU incorporation assay; type: cell-based; details: T-24
T-24 [3] = assay: Cell cycle arrest in human T24 cells assessed as accumulation at G1 phase at 4.13 uM measured after 24 hrs by propidium iodide staining based fluorescence analysis (reference value: 66.18%); type: functional
A549 = assay: Antiproliferative activity against human A549 cells assessed as cell growth inhibition measured after 48 hrs by MTT assay; type: functional, cell-based; details: A549, 48 h
T-24 [4] = assay: Cell cycle arrest in human T24 cells assessed as accumulation at G1 phase at 2.06 uM measured after 24 hrs by propidium iodide staining based fluorescence analysis (reference value: 66.18%); type: functional
T-24 [5] = assay: Cell cycle arrest in human T24 cells assessed as accumulation at G2/M phase at 8.26 uM measured after 24 hrs by propidium iodide staining based fluorescence analysis (reference value: 10.16%); type: functional
[6] = target: T1, DNA topoisomerase 1 (Homo sapiens) (UniProt P11387); assay: Inhibition of topoisomerase 1 (unknown origin) mediated DNA relaxation at 20 uM by gel electrophoresis assay
T1 sequence (whole entry): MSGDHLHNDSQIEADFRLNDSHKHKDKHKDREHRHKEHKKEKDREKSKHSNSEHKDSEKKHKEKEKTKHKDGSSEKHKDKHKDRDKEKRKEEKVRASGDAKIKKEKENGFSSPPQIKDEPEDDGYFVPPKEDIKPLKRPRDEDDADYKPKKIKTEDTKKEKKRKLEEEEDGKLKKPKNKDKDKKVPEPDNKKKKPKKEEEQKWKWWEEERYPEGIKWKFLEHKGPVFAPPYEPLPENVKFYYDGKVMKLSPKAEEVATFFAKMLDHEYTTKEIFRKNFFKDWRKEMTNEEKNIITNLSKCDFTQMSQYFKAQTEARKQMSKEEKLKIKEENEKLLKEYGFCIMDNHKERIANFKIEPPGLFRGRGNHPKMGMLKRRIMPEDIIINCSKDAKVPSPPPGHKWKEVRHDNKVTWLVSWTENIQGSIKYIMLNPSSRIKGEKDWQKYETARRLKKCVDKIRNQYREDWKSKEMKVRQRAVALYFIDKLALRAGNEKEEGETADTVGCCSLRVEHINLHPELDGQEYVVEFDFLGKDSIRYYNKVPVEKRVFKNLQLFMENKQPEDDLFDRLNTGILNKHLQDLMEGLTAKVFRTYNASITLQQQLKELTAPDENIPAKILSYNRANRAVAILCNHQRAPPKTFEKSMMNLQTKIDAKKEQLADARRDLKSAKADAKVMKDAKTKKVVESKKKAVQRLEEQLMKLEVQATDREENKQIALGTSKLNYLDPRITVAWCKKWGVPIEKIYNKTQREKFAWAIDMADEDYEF

T-24 [7] = assay: Anticancer activity against human T24 cells xenografted in mouse assessed as tumor growth inhibition by measuring T/C ratio at 15 mg/kg measured at day 14 relative to control; type: functional
T-24 [8] = assay: Anticancer activity against human T24 cells xenografted in mouse assessed as tumor inhibition rate at 5 mg/kg measured at day 14 relative to control; type: functional; details: T-24, 336 h
T-24 [9] = assay: Induction of apoptosis in human T24 cells assessed as late apoptotic cells at 4.13 uM by AnnexinV/propidium iodide staining based flow cytometry (reference value: 0%); type: functional
HepG2 [10] = assay: Anticancer activity against human HepG2 cells xenografted in mouse assessed as tumor inhibition rate at 15 mg/kg measured at day 14 relative to control; type: functional; details: HepG2, 336 h
T-24 [11] = assay: Induction of apoptosis in human T24 cells assessed as early apoptotic cells at 2.06 uM by AnnexinV/propidium iodide staining based flow cytometry (reference value: 0.7%); type: functional
T-24 [12] = assay: Cell cycle arrest in human T24 cells assessed as accumulation at G2/M phase at 2.06 uM measured after 24 hrs by propidium iodide staining based fluorescence analysis (reference value: 10.16%); type: functional
SK-OV-3 = assay: Antiproliferative activity against human SKOV3 cells assessed as cell growth inhibition measured after 48 hrs by MTT assay; type: functional, cell-based; details: SK-OV-3, 48 h
T-24 [13] = assay: Induction of apoptosis in human T24 cells assessed as late apoptotic cells at 2.06 uM by AnnexinV/propidium iodide staining based flow cytometry (reference value: 0%); type: functional
T-24 [14] = assay: Induction of morphological changes in human T24 cells by AO/EB staining based assay; type: functional, cell-based
DNA [15] = assay: Binding affinity to supercoiled circular Escherichia coli pBR322 DNA assessed as DNA intercalation at 20 to 100 uM by gel electrophoresis mobility shift assay; type: nucleic-acid assay
T-24 [16] = assay: Induction of apoptosis in human T24 cells assessed as […] of Bcl-2 expression at 2 to 8 uM by Western blot analysis; type: functional, cell-based
[17] = Toxicity in mouse xenografted with human T24 cells assessed as effect on body weight at 5 to 15 mg/kg; type: organism-based, T-24; details: in vivo
[18] = Toxicity in mouse xenografted with human T24 cells assessed as adverse effect at 5 to 15 mg/kg; type: organism-based, T-24; details: in vivo
T-24 [19] = assay: Induction of apoptosis in human T24 cells assessed as upregulation of cytosolic cytochrome-C expression at 2 to 8 uM by Western blot analysis; type: functional, cell-based
T-24 [20] = assay: Induction of cell cycle arrest in human T24 cells assessed as upregulation of Wee1 expression at 2 to 8 uM by Western blot analysis; type: functional, cell-based
T-24 [21] = assay: Induction of apoptosis in human T24 cells assessed as necrotic cells at 8.26 uM by AnnexinV/propidium iodide staining based flow cytometry (reference value: 0.1%); type: functional
L02 = assay: Cytotoxicity against human HL7702 cells assessed as cell growth inhibition measured after 48 hrs by MTT assay; type: cell-based; details: L02, 48 h
T-24 [22] = assay: Induction of apoptosis in human T24 cells assessed as cell budding by AO/EB staining based assay; type: functional
T-24 [23] = assay: Induction of apoptosis in human T24 cells assessed as live cells at 8.26 uM by AnnexinV/propidium iodide staining based flow cytometry (reference value: 99.1%); type: functional
T-24 [24] = assay: Induction of apoptosis in human T24 cells assessed as early apoptotic cells at 4.13 uM by AnnexinV/propidium iodide staining based flow cytometry (reference value: 0.7%); type: functional
SMMC-7721 = assay: Antiproliferative activity against human SMMC7721 cells assessed as cell growth inhibition measured after 48 hrs by MTT assay; type: functional, cell-based; details: SMMC-7721, 48 h
T-24 [25] = assay: Induction of cell cycle arrest in human T24 cells assessed as upregulation of cyclin-B1 expression at 2 to 8 uM by Western blot analysis; type: functional, cell-based
T-24 [26] = assay: Anticancer activity against human T24 cells xenografted in mouse assessed as tumor growth inhibition by measuring T/C ratio at 5 mg/kg measured at day 14 relative to control; type: functional
HepG2 [27] = assay: Anticancer activity against human HepG2 cells xenografted in mouse assessed as tumor growth inhibition by measuring T/C ratio at 15 mg/kg measured at day 14 relative to control; type: functional
HepG2 [28] = assay: Antiproliferative activity against human HepG2 cells assessed as cell growth inhibition measured after 48 hrs by MTT assay; type: functional, cell-based; details: HepG2, 48 h
T-24 [29] = assay: Induction of cell cycle arrest in human T24 cells assessed as upregulation of cdc-2Ty expression at 2 to 8 uM by Western blot analysis; type: functional, cell-based
T-24 [30] = assay: Induction of cell cycle arrest in human T24 cells assessed as upregulation of p21 expression at 2 to 8 uM by Western blot analysis; type: functional, cell-based
T-24 [31] = assay: Induction of apoptosis in human T24 cells assessed as pycnosis by AO/EB staining based assay; type: functional, cell-based
DNA [32] = assay: Induction of Escherichia coli supercoiled circular pBR322 DNA cleavage at 20 to 100 uM by gel electrophoresis mobility shift assay; type: nucleic-acid assay
T-24 [33] = assay: Induction of apoptosis in human T24 cells assessed as necrotic cells at 2.06 uM by AnnexinV/propidium iodide staining based flow cytometry (reference value: 0.1%); type: functional
T-24 [34] = assay: Induction of cell cycle arrest in human T24 cells assessed as upregulation of gammaH2AX expression at 2 to 8 uM by Western blot analysis; type: functional, cell-based
T-24 [35] = assay: Induction of apoptosis in human T24 cells by AnnexinV/propidium iodide staining based flow cytometry; type: functional, cell-based
T-24 [36] = assay: Induction of apoptosis in human T24 cells assessed as live cells at 4.13 uM by AnnexinV/propidium iodide staining based flow cytometry (reference value: 99.1%); type: functional
T-24 [37] = assay: Induction of apoptosis in human T24 cells assessed as early apoptotic cells at 8.26 uM by AnnexinV/propidium iodide staining based flow cytometry (reference value: 0.7%); type: functional
T-24 [38] = assay: Cell cycle arrest in human T24 cells assessed as accumulation at S phase at 2.06 uM measured after 24 hrs by propidium iodide staining based fluorescence analysis (reference value: 23.67%); type: functional
[39] = Toxicity in mouse xenografted with human HepG2 cells assessed as effect on body weight at 5 to 15 mg/kg; type: organism-based; details: in vivo
T-24 [40] = assay: Antiproliferative activity against human T24 cells assessed as cell growth inhibition measured after 48 hrs by MTT assay; type: functional, cell-based; details: T-24, 48 h
T-24 [41] = assay: Anticancer activity against human T24 cells xenografted in mouse assessed as tumor inhibition rate at 15 mg/kg measured at day 14 relative to control; type: functional; details: T-24, 336 h
[42] = Toxicity in mouse xenografted with human HepG2 cells assessed as adverse effect at 5 to 15 mg/kg; type: organism-based; details: in vivo
T-24 [43] = assay: Induction of apoptosis in human T24 cells assessed as […] of Bax expression at 2 to 8 uM by Western blot analysis; type: functional, cell-based
T-24 [44] = assay: Induction of apoptosis in human T24 cells assessed as live cells at 2.06 uM by AnnexinV/propidium iodide staining based flow cytometry (reference value: 99.1%); type: functional
T-24 [45] = assay: Cell cycle arrest in human T24 cells assessed as accumulation at G1 phase at 8.26 uM measured after 24 hrs by propidium iodide staining based fluorescence analysis (reference value: 66.18%); type: functional
T-24 [46] = assay: Cell cycle arrest in human T24 cells assessed as accumulation at S phase at 8.26 uM measured after 24 hrs by propidium iodide staining based fluorescence analysis (reference value: 23.67%); type: functional
T-24 [47] = assay: Cell cycle arrest in human T24 cells assessed as accumulation at S phase at 4.13 uM measured after 24 hrs by propidium iodide staining based fluorescence analysis (reference value: 23.67%); type: functional
HepG2 [48] = assay: Anticancer activity against human HepG2 cells xenografted in mouse assessed as tumor inhibition rate at 5 mg/kg measured at day 14 relative to control; type: functional; details: HepG2, 336 h
T-24 [49] = assay: Induction of apoptosis in human T24 cells assessed as necrotic cells at 4.13 uM by AnnexinV/propidium iodide staining based flow cytometry (reference value: 0.1%); type: functional
T-24 [50] = assay: Induction of apoptosis in human T24 cells assessed as membrane blebbing by AO/EB staining based assay; type: functional, cell-based
T-24 [51] = assay: Induction of apoptosis in human T24 cells assessed as late apoptotic cells at 8.26 uM by AnnexinV/propidium iodide staining based flow cytometry (reference value: 0%); type: functional
T-24 [52] = assay: Cell cycle arrest in human T24 cells assessed as accumulation at G2/M phase at 4.13 uM measured after 24 hrs by propidium iodide staining based fluorescence analysis (reference value: 10.16%); type: functional

Compound: CNCCN1C(=O)c2cccc3cc([N+](=O)[O-])cc(c23)C1=O
- T/C (HepG2 [1]): 66.7%
- Activity (DNA [2]): Active
- Activity (T-24 [3]): 9.9%
- IC50 (A549): 12.6 µM
- Activity (T-24 [4]): 50.17%
- Activity (T-24 [5]): 92.24%
- inhibition [6]: Active
- T/C (T-24 [7]): 38.4%
- inhibition in vivo at 5 mg/kg (T-24 [8]): 30.1%
- Activity (T-24 [9]): 0%
- inhibition in vivo at 15 mg/kg (HepG2 [10]): 60%
- Activity (T-24 [11]): 0.9%
- Activity (T-24 [12]): 30.01%
- IC50 (SK-OV-3): 20.7 µM
- Activity (T-24 [13]): 0%
- Activity (T-24 [14]): Active
- Activity (DNA [15]): Active
- Activity (T-24 [16]): Active
- Activity [17]: Non-Toxic
- Activity [18]: Non-Toxic
- Activity (T-24 [19]): Active
- Activity (T-24 [20]): Active
- Activity (T-24 [21]): 0%
- IC50 (L02): 18.7 µM
- Activity (T-24 [22]): Active
- Activity (T-24 [23]): 76.6%
- Activity (T-24 [24]): 5.4%
- IC50 (SMMC-7721): 14 µM
- Activity (T-24 [25]): Active
- T/C (T-24 [26]): 62.9%
- T/C (HepG2 [27]): 38.6%
- IC50 (HepG2 [28]): 9.2 µM
- Activity (T-24 [29]): Active
- Activity (T-24 [30]): Active
- Activity (T-24 [31]): Active
- Activity (DNA [32]): inactive
- Activity (T-24 [33]): 0.2%
- Activity (T-24 [34]): Active
- Activity (T-24 [35]): Dose-dependent effect
- Activity (T-24 [36]): 94.3%
- Activity (T-24 [37]): 23.4%
- Activity (T-24 [38]): 19.81%
- Activity [39]: Non-Toxic
- IC50 (T-24 [40]): 4.13 µM
- inhibition in vivo at 15 mg/kg (T-24 [41]): 58.7%
- Activity [42]: Non-Toxic
- Activity (T-24 [43]): Active
- Activity (T-24 [44]): 98.8%
- Activity (T-24 [45]): 0.05%
- Activity (T-24 [46]): 7.71%
- Activity (T-24 [47]): 7.99%
- inhibition in vivo at 5 mg/kg (HepG2 [48]): 26.8%
- Activity (T-24 [49]): 0.1%
- Activity (T-24 [50]): Active
- Activity (T-24 [51]): 0%
- Activity (T-24 [52]): 82.11%

From ChEMBL document CHEMBL4627310, “Design, synthesis and biological evaluation of 3-nitro-1,8-naphthalimides as potential antitumor agents” (Bioorg Med Chem Lett, 2020)
